# Measured values published in patent publication US4956355A, “Agents for the arrest and therapy of retroviral infections” (Colthurst Limited, priority 1987, dated 1990).
# How the values were obtained:
# [1] = system: tumor cell lines; test: Toxicity to tumor cell lines, Examples 1 to 7; format: cell-based, human; details: 10^-4 molar; all experiments of Examples 1 to 7
# Protocol: (§1) 7. Analysis of nonspecific toxicity to the target cells with Compounds A and B. The VB, H9 and HXB cell lines were exposed to different concentrations of Compounds A and B as were normal human macrophages for the length of time the drug was in contact with each cell line as described in the above assays. Cell numbers were counted, and live versus dead were determined by Trypan blue exclusion assays. These tests were required to determine a therapeutic index between nonspecific toxic effects on the described cells, compared with potential effective antiviral effects in vitro (Example 6).
# [2] = system: HIV in chronically infected human macrophages; test: Antiviral testing of chronically HIV infected macrophages; format: cell-based
# Source text: (§2) 2. Source of cells: The VB cell line used in Example 1 is a T lymphoma cell line that is highly susceptible to infection with HIV, and expresses high levels of cell surface CD4 molecules. This cell line forms syncytia within two days after infection with all strains of HIV tested to date. […] This is used to quantitate infection in the absence of syncytial formation, infection being quantitated by immunofluorescence assays. The HXB/H9 cell line (Example 6) is an H9 cell population that chronically produces the HTLV-IIIB strain of HIV and is utilised in experiments testing antiviral effects on chronically infected cell lines. Human macrophages were prepared from peripheral blood mononuclear cells either obtained from the blood bank as a buffy coat, or as a leukophoresis preparation. Crowe et al. supra have devised an assay system that allows quantitation of HIV infection, and inhibition of infection using immunocytofluorographic analysis. In order to quantitate HIV infection in macrophages, they grow macrophages in Teflon (Trade Mark) culture vessels which maintain macrophages in suspension in vitro culture for up to six months. Cell surface and cytoplasmic immunofluorescence staining is then performed to quantitate antigens in macrophages by flow cytometry.
# 3. Flow cytometry: An Ortho Cytofluorgraf II-S (Trade Mark) that has a biohazard containment flow cell was used for analysis of HIV infected samples. HIV p24 antigens were detected utilizing a mouse monoclonal anti-p24 (du Pont), and mouse antibodies were identified utilizing an FITC conjugated goat anti-mouse IgG.
# 6. Analysis of chronically infected cells: To determine whether compounds A and B are effective at inhibiting HIV expression in macrophages and chronically infected T cells, the following experiments were performed. The chronically infected T cell line, HXB/H9 was exposed to various concentrations of drug for four days in vitro. At four days, the HXB cells were assayed for the presence of p24 intracytoplasmically, and supernatants were assayed for the presence of infectious virus as described above.
# Because macrophages can be infected and produce HIV for very long periods of time without substantial loss of viability, chronically infected cells were tested, specifically a population that was between 30 and 50% HIV antigen positive, for inhibition of cytoplasmic HIV p24 antigen production. FIG. 5 indicates the results of three separate experiments carried out.
# [3] = system: HXB cell line; test: Killing of HXB cells; format: cell-based, human; details: 10^-4 molar
# Protocol: as §1
# [4] = system: peripheral blood lymphocytes; test: Nonspecific toxicity to peripheral blood lymphocytes; format: cell-based, human
# [5] = system: HIV in human macrophages; test: Inhibition of HIV production in normal human macrophages (supernatant p24, acute infection); format: cell-based
# Protocol: (§3) 1. […] All three viral strains were grown in the Tissue Culture Laboratory of the AIDS Activity Division of San Francisco General Hospital where titers of […] infectious units per ml were routinely achieved.
# as §2
# (§4) 4. HIV soluble p24 antigen detection: Soluble p24 antigens were measured with the Abbott HIV antigen detection system.
# (c) To test whether Compounds A and B were effective at blocking acute infection of macrophages, macrophages from Teflon cultures were exposed at a multiplicity of 1 to HIV-DV in the presence or absence of various concentrations of drug (Examples 3-5). Normally, HIV expression peaks in human macrophages at approximately ten days after initial infection. Therefore, after infection for one hour at room temperature, followed by a wash and resuspension of the macrophages in various drug concentrations, macrophages were stained for the presence of p24 antigen at day ten. Culture supernatants from these macrophages were assayed for the presence of soluble p24, and infectious virus as described above.
# To test whether compounds A and B might be active at inhibiting infection of normal human macrophages, a spectrum of drug concentrations were tested for inhibition of acute infection, and inhibition of HIV expression in chronically infected macrophages. […] After acute infection (one hour) cells were incubated in various concentrations of compounds A and B, and 7 days after the initial infection supernatants were harvested for p24 antigen quantitation. […]
# [6] = system: HIV in VB T lymphoma cell line; test: Inhibition of HIV mediated cytopathic effects (multinucleated giant/syncytial cell formation) in acutely infected VB tumor cell line; format: cell-based
# Protocol: as §3, §2
# 5. Inhibition of acute infection: Several assays were utilized to test for inhibition of acute infection; these included:
# (a) Inhibition of multinucleated giant cell formation in acutely infected VB cells infected at a multiplicity of infection of 1, and scored two days after infection in the presence or absence of varying concentrations of drug, for the formation of multinucleated giant cells. (free virus is washed out after a one hour incubation pretreatment at room temperature). […] Supernatants were also isolated and the level of HIV p24 antigen determined. Infectious virus was measured in treated cultures by performing a syncytial assay as described above.
# (§5) Compounds A and B were tested for inhibition of T lymphoma cell cytopathic effect at various drug concentrations after acute infection with HIV for 48 hours. […] It is possible that the diminished effects noted in later experiments could have been secondary to drug stability problems.
# [7] = system: normal human macrophages; test: Nonspecific toxicity to normal human macrophages; format: cell-based
# Protocol: as §1
# [8] = system: VB T lymphoma cell line; test: Nonspecific toxicity to VB cell line; format: cell-based, human; details: 10^-4 molar
# Protocol: as §1, §5
# [9] = system: HIV in activated peripheral blood lymphocytes; test: Inhibition of HIV mediated cytopathic effects / p24 antigen production in activated peripheral blood lymphocytes; format: cell-based; details: for p24 antigen production: activated PBL, about 7 days after infection, FIG. 2
# Protocol: as §3, §4
# (b) Although the VB T lymphoma cell line behaves in a similar manner to peripheral blood CD4 positive T lymphocytes in regard to HIV induced cytopathic effects, the above described experiments were performed on phytohemagglutinin (PHA) activated lymphocytes to determine whether lymphocytes are more or less sensitive to Compounds A and B than is the VB cell line. In this assay system, at the time that multinucleated giant cells appeared within infected lymphocyte cultures, the supernatants were analyzed for the presence of HIV p24 antigens and were titered on indicator VB lymphoma cells to determine the titer of infectious virus present at each point.
# To test whether the effects of compounds A and B on acute VB T lymphoma infection would be mimicked by activated peripheral blood lymphocytes (PBC), HIV at a multiplicity of infection of one was added to lymphocytes that had been activated for 48 hours with 2 μg per ml of PHA. After the initial infection for one hour, the activated lymphocytes were washed and resuspended for the one week of culture. Multinucleated giant cells began to form approximately 7 days after the initial infection, at which time the culture supernatants were harvested and tested for the presence of HIV p24 antigens. The accumulation of HIV p24 antigens in the supernatant is representative of production of HIV from infected cells.
# [10] = system: HIV in HXB/H9 cell line; test: Antiviral testing of chronically HIV infected cell line HXB; format: cell-based; details: other than killing with compound B at 10^-4 molar
# Protocol: as §3
# as §2, with “Human macrophages were prepared from peripheral blood mononuclear cells either obtained from the blood bank as a buffy coat, or as a leukophoresis preparation.” left out, “cytometry. […]” for “cytometry.”
# [11] = system: HIV in human macrophages; test: Inhibition of cytoplasmic HIV p24 antigen in HIV-infected macrophages; format: cell-based; details: 10^-4 molar; three donors; FIG. 4
# Protocol: as §3, §2
# 3. Flow cytometry: An Ortho Cytofluorgraf II-S (Trade Mark) that has a biohazard containment flow cell was used for analysis of HIV infected samples. HIV p24 antigens were detected utilizing a mouse monoclonal anti-p24 (du Pont), and mouse antibodies were identified utilizing an FITC conjugated goat anti-mouse IgG. […]
# The cells from the experiment described in Example 3 were analysed, and the cytoplasm was analysed for the presence of HIV p24 to directly test whether HIV p24 antigen production was inhibited within those infected cells. […]
# [12] = system: HIV; test: Oral dehydroepiandrosterone sulphate in AIDS patients, T4 cell count; format: in vivo, human patients; details: patients X and Y, 300 mg once per day then 100 mg, day 5 to day 17
# Protocol: Dehydroepiandrosterone sulphate was measured into unit doses of 300 mg and 100 mg and each unit dose enclosed in a soft gelatin capsule.
# (A) A patient sero positive for HIV and diagnosed as suffering from AIDS was treated as follows. For twelve consecutive days, the patient was treated by administering the encapsulated compound orally to the patient. For the first eleven days, a unit dose of 300 mg was administered, once per day. On the twelfth day, the patient was given a single unit dose of 100 mg of the compound.
# Blood samples were taken from the patients on five occasions over the twenty-six day period. The first tests were carried out on each patient on day 1 and included measurements of T1, T4 and T8 cell counts, as well as, sedimentation rate. The treatment commenced on day 5, and continued to day 17. From day 5 to day 16, each patient, as already discussed, received a single unit dose of 300 mg of dehydroepiandrosterone sulphate orally and on day 17 100 mg was administered. The aforementioned tests were repeated on each patient on day 9, day 17, day 24 and day 26.
smiles,measurement,setting,value
"C[C@]12CC[C@H](O)C[C@@H]1CC[C@@H]1[C@@H]2CC[C@]2(C)C(=O)[C@H](Br)C[C@@H]12 [B, 16α-bromoepiandrosterone]",toxicity to tumor cell lines,[1],appreciable toxicity
same,inhibition compared with inhibition of acute infection of macrophages,"[2]; 10^-4 and 10^-5 molar, FIG. 5 vs FIG. 4",somewhat less than the inhibition of acute infection of macrophages
same,inhibition of cytoplasmic HIV p24 antigen production in chronically infected macrophages,"[2]; both 10^-4 and 10^-5 molar, three experiments, FIG. 5",some inhibition
same,killing of HXB cells,[3],killing
same,toxicity with the PBL cultures,[4]; 10^-4 and 10^-5 molar,No appreciable toxicity
same,"extreme toxicity seen in VB cells, in normal peripheral blood lymphocytes",[4]; 10^-4 molar,not shared by either the normal peripheral blood lymphocytes or macrophages
same,toxicity to peripheral blood lymphocytes,[4]; 10^-4 to 10^-8 molar,nor was there appreciable toxicity
same,decrease in production of HIV p24 antigens (supernatant),"[5]; 10^-4 through 10^-8 molar, 7 days after acute infection, FIG. 3",approximately 50%
same,HIV infection and HIV expression in macrophages,"[5]; in vitro, reproducible, six separate monocyte/macrophage donors",inhibit HIV infection and HIV expression in macrophages
same,"inhibition of HIV mediated multinucleated syncytial cell formation, compared with compound A","[6]; VB cells, acute infection, 48 hours, FIG. 1, average of two experiments",more active
same,"antiviral effects in comparison with AZT, T lymphoma cells",[6]; acute infection,inferior
same,antiviral effect in acute infection studies of T lymphoma cells,"[6]; acute infection, conclusions",mild antiviral effect
same,inhibition of cytopathic effect in two subsequent experiments,"[6]; compounds diluted in DMSO, possibly secondary to drug stability problems",less striking effect
same,"extreme toxicity seen in VB cells, in macrophages",[7]; 10^-4 molar,not shared by either the normal peripheral blood lymphocytes or macrophages
same,toxicity in normal macrophages,[7]; 10^-4 to 10^-8 molar,not appreciable toxicity
same,toxicity to VB T lymphoma cell line,[8],extremely toxic
same,p24 antigen production,[9]; 10^-4 molar,moderately inhibited
same,p24 antigen production,[9]; 10^-5 molar,slightly less inhibited
same,"antiviral effects in comparison with AZT, lymphocytes",[9]; acute infection,inferior
same,antiviral effect in acute infection studies of lymphocytes,"[9]; acute infection, conclusions",mild antiviral effect
same,inhibition of HIV production of cytopathic effects in chronically infected lymphoma cell line,[10],no specific inhibition
same,HIV p24 cytoplasmic antigen production,[11],substantially inhibited
C[C@]12CC[C@H](OS(=O)(=O)O)CC1=CC[C@@H]1[C@@H]2CC[C@]2(C)C(=O)CC[C@@H]12 [dehydroepiandrosterone sulphate],T4 cell count,[12],stabilise
